Assay results reported in patent US20220313698A1, “MODULATORS OF CYSTIC FIBROSIS TRANSMEMBRANE CONDUCTANCE REGULATOR” (Vertex Pharmaceuticals Incorporated, priority 2019, published 2022).
One block for each molecule: values may come before it.

Molecular target: CFTR-mediated chloride transport (Homo sapiens, UniProt P13569)
Assay: Corrector Assay A - membrane potential dye assay (enteroid cells)
Details: for Corrector Assay A % activity: % of chloride transport of triple combination control (1 μM (14S)-dispiro macrocycle + 3 μM tezacaftor + 300 nM ivacaftor); for EC50: read-out: Corrector Assay A EC50, human intestinal enteroid cells, 18-24 h incubation, acute 10 μM forskolin + 300 nM ivacaftor

Structure (SMILES): CC(C)(C)c1ccc2c(n1)N1C[C@@H](CC[C@@H](c3ncccc3Br)Nc3cccc(n3)S(=O)(=O)NC2=O)CC1(C)C (single isomer, unassigned) [Compound 53]
Corrector Assay A % activity: +++ (+++ is >60%)
EC50: < 1000 nM

Structure (SMILES): CC(C)(C)c1ccc2c(n1)N1C[C@@H](CC[C@@H](c3cc(C4=CCOCC4)ccn3)Nc3cccc(n3)S(=O)(=O)NC2=O)CC1(C)C (single isomer, unassigned) [Compound 126]
Corrector Assay A % activity: +++ (+++ is >60%)
EC50: < 1000 nM

Structure (SMILES): CC(C)(C)c1ccnc(C2CC[C@@H]3CN(c4nc(C(C)(C)C)ncc4C(=O)NS(=O)(=O)c4cccc(n4)N2)C(C)(C)C3)c1 (single isomer, unassigned) [Compound 1]
Corrector Assay A % activity: + (+ is <30%)

Structure (SMILES): CC(C)(C)c1ccc2c(n1)N1C[C@@H](CC[C@H](c3cccc(CNCC(F)(F)F)n3)Nc3cccc(n3)S(=O)(=O)NC2=O)CC1(C)C [Compound 50, (14S,17R)-8-tert-Butyl-12,12-dimethyl-17-(6-{[(2,2,2-trifluoroethyl)amino]methyl}pyridin-2-yl)-2λ^6-thia-3,9,11,18,23-pentaazatetracyclo[17.3.1.111,14.05,10]tetracosa-1(22),5,7,9,19(23),20-hexaene-2,2,4-trione]
Corrector Assay A % activity: +++ (+++ is >60%)
EC50: 1000 to 3000 nM

Structure (SMILES): CC(C)(C)c1ccc2c(n1)N1C[C@@H](CCC(c3ccc(Cl)cn3)Nc3cccc(n3)S(=O)(=O)NC2=O)CC1(C)C (single isomer, unassigned) [Compound 208]
Corrector Assay A % activity: +++ (+++ is >60%)
EC50: < 1000 nM

Structure (SMILES): CC(C)(C)c1ccc(C2CC[C@@H]3CN(c4nc(C(C)(C)C)ccc4C(=O)NS(=O)(=O)c4cccc(n4)N2)C(C)(C)C3)nc1 (single isomer, unassigned) [Compound 187]
Corrector Assay A % activity: ++ (++ is 30-60%)
EC50: < 1000 nM

Structure (SMILES): CC1(C)C[C@@H]2CC[C@@H](c3ccccn3)Nc3cccc(n3)S(=O)(=O)NC(=O)c3ccc(C#N)nc3N1C2 [Compound 192]
Corrector Assay A % activity: + (+ is <30%)
EC50: 1000 to 3000 nM

Structure (SMILES): Cc1ccc2nc3c(cc2c1)C(=O)NS(=O)(=O)c1cccc(n1)N[C@H](c1cc(C(C)(C)C)ccn1)CC[C@@H]1CN3C(C)(C)C1 (single isomer, unassigned) [Compound 5]
Corrector Assay A % activity: +++ (+++ is >60%)
EC50: < 1000 nM

Structure (SMILES): CC(C)(C)c1ccc2c(n1)N1C[C@@H](CCC(c3cc(C#N)ccn3)Nc3cccc(n3)S(=O)(=O)NC2=O)CC1(C)C (single isomer, unassigned) [Compound 143]
Corrector Assay A % activity: ++ (++ is 30-60%)
EC50: < 1000 nM

Structure (SMILES): CC(C)(C)c1ccc2c(n1)N1C[C@@H](CC[C@H](c3cccc(CCN)n3)Nc3cccc(n3)S(=O)(=O)NC2=O)CC1(C)C [Compound 104]
Corrector Assay A % activity: ++ (++ is 30-60%)
EC50: < 1000 nM

Structure (SMILES): CC(C)(C)c1ccc2c(n1)N1C[C@@H](CC[C@@H](c3cccc(C4=CCNCC4)n3)Nc3cccc(n3)S(=O)(=O)NC2=O)CC1(C)C [Compound 141]
Corrector Assay A % activity: ++ (++ is 30-60%)
EC50: 1000 to 3000 nM

Structure (SMILES): CC(C)(C)/C=C/c1ccc2c(n1)N1C[C@@H](CC[C@H](c3ccccn3)Nc3cccc(n3)S(=O)(=O)NC2=O)CC1(C)C [Compound 106, (14S,17R)-8-[(1E)-3,3-dimethylbut-1-en-1-yl]-12,12-dimethyl-17-(pyridin-2-yl)-2λ^6-thia-3,9,11,18,23-pentaazatetracyclo[17.3.1.111,14.05,10]tetracosa-1(22),5,7,9,19(23),20-hexaene-2,2,4-trione]
Corrector Assay A % activity: +++ (+++ is >60%)
EC50: < 1000 nM

Structure (SMILES): CC(C)(C)c1ccc2c(n1)N1C[C@@H](CCC(c3ccc(-c4cn[nH]c4)cn3)Nc3cccc(n3)S(=O)(=O)NC2=O)CC1(C)C (some centres unmarked) [Compound 135]
Corrector Assay A % activity: ++ (++ is 30-60%)
EC50: < 1000 nM

Structure (SMILES): CC(C)(C)CCOc1cccc(-c2ccc3c(n2)N2C[C@@H](CC[C@H](c4cc(C(C)(C)C)ccn4)Nc4cccc(n4)S(=O)(=O)NC3=O)CC2(C)C)n1 [Compound 303, (14S,17R)-17-(4-tert-butylpyridin-2-yl)-8-[6-(3,3-dimethylbutoxy)pyridin-2-yl]-12,12-dimethyl-2λ^6-thia-3,9,11,18,23-pentaazatetracyclo[17.3.1.111,14.05,10]tetracosa-1(22),5,7,9,19(23),20-hexaene-2,2,4-trione]
Corrector Assay A % activity: +++ (+++ is >60%)
EC50: < 1000 nM

Structure (SMILES): CN(C)C(=O)CCCC1CC[C@@H]2CN(c3nc(C(C)(C)C)ccc3C(=O)NS(=O)(=O)c3cccc(n3)N1)C(C)(C)C2 (stereo partly drawn) [Compound 18, 4-[(14S)-8-tert-Butyl-12,12-dimethyl-2,2,4-trioxo-2λ^6-thia-3,9,11,18,23-pentaazatetracyclo[17.3.1.111,14.05,10]tetracosa-1(23),5(10),6,8,19,21-hexaen-17-yl]-N,N-dimethylbutanamide]
Corrector Assay A % activity: +++ (+++ is >60%)
EC50: < 1000 nM

Structure (SMILES): CC(C)(C)c1ccc2c(n1)N1C[C@@H](CCC(CC(O)CO)Nc3cccc(n3)S(=O)(=O)NC2=O)CC1(C)C (single isomer, unassigned) [Compound 32]
Corrector Assay A % activity: +++ (+++ is >60%)
EC50: < 1000 nM

Structure (SMILES): CN(C)Cc1cccc([C@H]2CC[C@@H]3CN(c4nc(C(C)(C)C)ccc4C(=O)NS(=O)(=O)c4cccc(n4)N2)C(C)(C)C3)n1 [Compound 99]
Corrector Assay A % activity: ++ (++ is 30-60%)
EC50: < 1000 nM

Further lines, results first:

Corrector Assay A % activity: ++ (++ is 30-60%)
EC50: < 1000 nM
Structure (SMILES): CC(=O)N1CCC([C@@H]2CC[C@@H]3CN(c4nc(C(C)(C)C)ccc4C(=O)NS(=O)(=O)c4cccc(n4)N2)C(C)(C)C3)CC1 (single isomer, unassigned) [Compound 229]

Corrector Assay A % activity: +++ (+++ is >60%)
EC50: < 1000 nM
Structure (SMILES): CC(C)(C)COc1cccc(-c2ccc3c(n2)N2C[C@@H](CC[C@H](c4ccccn4)Nc4cccc(n4)S(=O)(=O)NC3=O)CC2(C)C)n1 [Compound 312]

Corrector Assay A % activity: +++ (+++ is >60%)
EC50: < 1000 nM
Structure (SMILES): CC1(COc2ccn(-c3ccc4c(n3)N3C[C@@H](CC[C@H](c5ccccn5)Nc5cccc(n5)S(=O)(=O)NC4=O)CC3(C)C)n2)CC1 [Compound 321]

Corrector Assay A % activity: +++ (+++ is >60%)
EC50: < 1000 nM
Structure (SMILES): CC(C)(C)c1ccc2c(n1)N1C[C@@H](CCC(C(C)(C)C)Nc3cccc(n3)S(=O)(=O)NC2=O)CC1(C)C (single isomer, unassigned) [Compound 244]

Corrector Assay A % activity: + (+ is <30%)
EC50: < 1000 nM
Structure (SMILES): CC1(C)C[C@@H]2CC[C@@H](c3ccccn3)Nc3cccc(n3)S(=O)(=O)NC(=O)c3ccc(Br)nc3N1C2 [Compound 247, (14S,17S)-8-bromo-12,12-dimethyl-17-(pyridin-2-yl)-2λ^6-thia-3,9,11,18,23-pentaazatetracyclo[17.3.1.111,14.05,10]tetracosa-1(22),5,7,9,19(23),20-hexaene-2,2,4-trione]

Corrector Assay A % activity: +++ (+++ is >60%)
EC50: 1000 to 3000 nM
Structure (SMILES): CC(C)N1CCN(c2ccc3c(n2)N2C[C@@H](CC[C@H](c4ccccn4)Nc4cccc(n4)S(=O)(=O)NC3=O)CC2(C)C)C1=O [Compound 332]

Corrector Assay A % activity: ++ (++ is 30-60%)
EC50: < 1000 nM
Structure (SMILES): CC(C)n1cc(-c2ccc3c(n2)N2C[C@@H](CC[C@H](c4ccccn4)Nc4cccc(n4)S(=O)(=O)NC3=O)CC2(C)C)cn1 [Compound 346]

Corrector Assay A % activity: +++ (+++ is >60%)
EC50: < 1000 nM
Structure (SMILES): CC(C)COc1cccc(-c2ccc3c(n2)N2C[C@@H](CC[C@H](c4ccccn4)Nc4cccc(n4)S(=O)(=O)NC3=O)CC2(C)C)n1 [Compound 315]

Corrector Assay A % activity: +++ (+++ is >60%)
EC50: < 1000 nM
Structure (SMILES): CC1(C)C[C@@H]2CC[C@H](c3ccccn3)Nc3cccc(n3)S(=O)(=O)NC(=O)c3ccc(-c4cccc(F)n4)nc3N1C2 [Compound 318, (14S,17R)-8-(6-fluoropyridin-2-yl)-12,12-dimethyl-17-(pyridin-2-yl)-2λ^6-thia-3,9,11,18,23-pentaazatetracyclo[17.3.1.111,14.05,10]tetracosa-1(22),5,7,9,19(23),20-hexaene-2,2,4-trione]

Corrector Assay A % activity: +++ (+++ is >60%)
EC50: 1000 to 3000 nM
Structure (SMILES): CN1CCN(c2ccc3c(n2)N2C[C@@H](CC[C@H](c4ccccn4)Nc4cccc(n4)S(=O)(=O)NC3=O)CC2(C)C)C1=O [Compound 333]

Corrector Assay A % activity: + (+ is <30%)
EC50: > 3000 nM
Structure (SMILES): COCCN1CCC2(CC1)CC(NC(=O)[C@@H]1CC[C@@H]3CN(c4nc(C(C)(C)C)ccc4C(=O)NS(=O)(=O)c4cccc(n4)N1)C(C)(C)C3)C2 [Compound 221]

Corrector Assay A % activity: +++ (+++ is >60%)
EC50: 1000 to 3000 nM
Structure (SMILES): COCCN1CCC2(CC1)CC(NC(=O)C1CC[C@@H]3CN(c4nc(C(C)(C)C)ccc4C(=O)NS(=O)(=O)c4cccc(n4)N1)C(C)(C)C3)C2 (single isomer, unassigned) [Compound 220]

Corrector Assay A % activity: ++ (++ is 30-60%)
EC50: 1000 to 3000 nM
Structure (SMILES): CC1CCC2CN(c3nc(C(C)(C)C)ccc3C(=O)NS(=O)(=O)c3ccn1n3)C(C)(C)C2 (single isomer, unassigned) [Compound 273]

Corrector Assay A % activity: +++ (+++ is >60%)
EC50: < 1000 nM
Structure (SMILES): CC(C)(C)c1ccc2c(n1)N1C[C@@H](CCC(c3cccnc3)Nc3cccc(n3)S(=O)(=O)NC2=O)CC1(C)C (single isomer, unassigned) [Compound 282]

Corrector Assay A % activity: +++ (+++ is >60%)
EC50: < 1000 nM
Structure (SMILES): CC(C)(C)c1ccnc([C@H]2CC[C@@H]3CN(c4nc(-c5cccc(F)n5)ccc4C(=O)NS(=O)(=O)c4cccc(n4)N2)C(C)(C)C3)c1 [Compound 307, (14S,17R)-17-(4-tert-butylpyridin-2-yl)-8-(6-fluoropyridin-2-yl)-12,12-dimethyl-2λ^6-thia-3,9,11,18,23-pentaazatetracyclo[17.3.1.111,14.05,10]tetracosa-1(22),5,7,9,19(23),20-hexaene-2,2,4-trione]

Corrector Assay A % activity: +++ (+++ is >60%)
EC50: < 1000 nM
Structure (SMILES): CC1(C)OCCc2cc3c(nc21)N1C[C@@H](CCC(c2ccccn2)Nc2cccc(n2)S(=O)(=O)NC3=O)CC1(C)C (single isomer, unassigned) [Compound 212]
